Experimental data as given in patent US5210193A, “Piperazine derivatives” (American Cyanamid Company, priority 1990, dated 1993).
In brackets after ≈: the same amount, converted by molar mass. Several values for one entry are separate records, joined by “and”; a condition that tells them apart may be missing. Identical values can stand only once. Counter-ions that a name gives are not always drawn. Like-named read-outs stand apart in the source and are kept apart here.

Assays:
Experiment in all cases: in vitro antibacterial MIC, agar plate dilution
Type in all cases: cell-based
[1] = tested on: Streptococcus faecalis VGH 84-65; conditions: Enterococcus faecalis, VGH8465, 18 h, 35° C., read-out: MIC
How it was run: (§1)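 Agar plate dilution on Mueller-Hinton agar, inoculum approximately 10^4 CFU per organism applied with a Steers replicator. MIC (mcg/ml) is the lowest compound concentration inhibiting visible growth after 18 hours at 35° C.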

[2] = tested on: Morganella morganii MOR 84-45; conditions: 35° C.
How it was run: as §1

[3] = tested on: Streptococcus faecalis UCI 85-30; conditions: 35° C.
How it was run: as §1

[4] = tested on: Streptococcus faecalis CMC 83-120; conditions: 35° C.
How it was run: as §1

[5] = tested on: Serratia marcescens MOR 84-41; conditions: 35° C.
How it was run: as §1

[6] = tested on: Serratia marcescens VGH 84-30; conditions: Serratia marcescens, VGH8430, 18 h, 35° C., read-out: MIC
How it was run: as §1

[7] = tested on: Serratia marcescens CMC 83-74; conditions: 35° C.
How it was run: as §1

[8] = tested on: Providencia stuarti CMC 83-3; conditions: 35° C.
How it was run: as §1

[9] = tested on: Enterobacter cloacae MOR 84-30; conditions: 35° C.
How it was run: as §1

[10] = tested on: Staphylococcus aureus Smith; conditions: 35° C.
How it was run: as §1

[11] = tested on: Enterobacter cloacae K 84-10; conditions: Enterobacter cloacae, K8410, 18 h, 35° C., read-out: MIC
How it was run: as §1

[12] = tested on: Morganella morganii CMC 84-37; conditions: 35° C.
How it was run: as §1

[13] = tested on: Staphylococcus aureus CMC 83-131; conditions: 35° C.
How it was run: as §1

[14] = tested on: Streptococcus faecalis VGH 84-69; conditions: 35° C.
How it was run: as §1

[15] = tested on: Pseudomonas aeruginosa VGH 84-4; conditions: Pseudomonas aeruginosa, VGH844, 18 h, 35° C., read-out: MIC
How it was run: as §1

[16] = tested on: Proteus rettgeri CMC 84-41; conditions: Providencia rettgeri, CMC8441, 18 h, 35° C., read-out: MIC
How it was run: as §1

[17] = tested on: Klebsiella pneumoniae CMC 84-31; conditions: 35° C.
How it was run: as §1

[18] = tested on: Enterobacter cloacae VGH 84-39; conditions: 35° C.
How it was run: as §1

[19] = tested on: Klebsiella pneumoniae IO 83-5; conditions: 35° C.
How it was run: as §1

[20] = tested on: Proteus rettgeri IO 83-21; conditions: 35° C.
How it was run: as §1

[21] = tested on: Pseudomonas aeruginosa CMC 83-20; conditions: Pseudomonas aeruginosa, CMC8320, 18 h, 35° C., read-out: MIC
How it was run: as §1

[22] = tested on: Morganella morganii VHG 84-12; conditions: Morganella morganii VHG 84-12 (VGH 84-12 for Example 131), 35° C.
How it was run: as §1

[23] = tested on: Morganella morganii CMC 84-38; conditions: 35° C.
How it was run: as §1

[24] = tested on: Serratia marcescens K 84-18; conditions: 35° C.
How it was run: as §1

[25] = tested on: Staphylococcus aureus K 82-26; conditions: 35° C.
How it was run: as §1

[26] = tested on: Escherichia coli VGH 84-19; conditions: 35° C.
How it was run: as §1

[27] = tested on: Escherichia coli CMC 84-11; conditions: 35° C.
How it was run: as §1

[28] = tested on: Pseudomonas aeruginosa LL-1244; conditions: Pseudomonas aeruginosa, LL1244, 18 h, 35° C., read-out: MIC
How it was run: as §1

[29] = tested on: Klebsiella pneumoniae MOR 84-24; conditions: 35° C.
How it was run: as §1

[30] = tested on: Citrobacter div. K 82-24; conditions: Citrobacter, DIV.K8224, 18 h, 35° C., read-out: MIC
How it was run: as §1

[31] = tested on: Streptococcus faecalis UCI 85-19; conditions: 35° C.
How it was run: as §1

[32] = tested on: Pseudomonas aeruginosa VGH 84-3; conditions: Pseudomonas aeruginosa, VGH843, 18 h, 35° C., read-out: MIC
How it was run: as §1

[33] = tested on: Staphylococcus aureus VGH 84-45; conditions: 35° C.
How it was run: as §1

[34] = tested on: Escherichia coli CMC 84-50; conditions: 35° C.
How it was run: as §1

[35] = tested on: Escherichia coli MOR 84-20; conditions: 35° C.
How it was run: as §1

[36] = tested on: Staphylococcus aureus VGH 84-47; conditions: 35° C.
How it was run: as §1

[37] = tested on: Pseudomonas aeruginosa K 84-16; conditions: Pseudomonas aeruginosa, K8416, 18 h, 35° C., read-out: MIC
How it was run: as §1

[38] = tested on: Escherichia coli LL 311; conditions: Escherichia coli, LL311, 18 h, 35° C., read-out: MIC
How it was run: as §1

[39] = tested on: Escherichia coli ATCC 25922; conditions: 18 hours, 35° C., monohydrochloride
How it was run: as §1

CCn1cc(C(=O)O)c(=O)c2cc(F)c(N3CCNC(c4ccncc4)C3)c(F)c21 (stereo not drawn) [Example 127]
MIC [1]: 2 µg/mL (≈ 4.83 µM)
MIC ([2]; Morganella morganii, MOR8445, 18 h, read-out: MIC): 2 µg/mL (≈ 4.83 µM)
MIC ([3]; Enterococcus faecalis, UCI8530, 18 h, read-out: MIC): 8 µg/mL (≈ 19.3 µM)
MIC ([4]; Enterococcus faecalis, CMC83120, 18 h, read-out: MIC): 4 µg/mL (≈ 9.65 µM)
MIC ([5]; Serratia marcescens, MOR8441, 18 h, read-out: MIC): 4 µg/mL (≈ 9.65 µM)
MIC [6]: 32 µg/mL (≈ 77.2 µM)
MIC ([7]; Serratia marcescens, CMC8374, 18 h, read-out: MIC): > 16 µg/mL
MIC ([8]; Providencia, CMC833, 18 h, read-out: MIC): > 16 µg/mL
MIC ([9]; Enterobacter cloacae, MOR8430, 18 h, read-out: MIC): 8 µg/mL (≈ 19.3 µM)
MIC ([10]; Staphylococcus aureus, 18 h, read-out: MIC): 0.06 µg/mL (≈ 0.145 µM)
MIC [11]: 2 µg/mL (≈ 4.83 µM)
MIC ([12]; Morganella morganii, CMC8437, 18 h, read-out: MIC): 0.5 µg/mL (≈ 1.21 µM)
MIC ([13]; Staphylococcus aureus, CMC83131, 18 h, read-out: MIC): 0.5 µg/mL (≈ 1.21 µM)
MIC ([14]; Enterococcus faecalis, VGH8469, 18 h, read-out: MIC): 4 µg/mL (≈ 9.65 µM)
MIC [15]: 16 µg/mL (≈ 38.6 µM)
MIC [16]: 1 µg/mL (≈ 2.41 µM)
MIC ([17]; Klebsiella pneumoniae, CMC8431, 18 h, read-out: MIC): 2 µg/mL (≈ 4.83 µM)
MIC ([18]; Enterobacter cloacae, VGH8439, 18 h, read-out: MIC): 2 µg/mL (≈ 4.83 µM)
MIC ([19]; Klebsiella pneumoniae, IO835, 18 h, read-out: MIC): 4 µg/mL (≈ 9.65 µM)
MIC ([20]; Providencia rettgeri, IO8321, 18 h, read-out: MIC): 4 µg/mL (≈ 9.65 µM)
MIC [21]: > 16 µg/mL
MIC ([22]; Morganella morganii, VHG8412, 18 h, read-out: MIC): 4 µg/mL (≈ 9.65 µM)
MIC ([23]; Morganella morganii, CMC8438, 18 h, read-out: MIC): 2 µg/mL (≈ 4.83 µM)
MIC ([24]; Serratia marcescens, K8418, 18 h, read-out: MIC): 1 µg/mL (≈ 2.41 µM)
MIC ([25]; Staphylococcus aureus, K8226, 18 h, read-out: MIC): 8 µg/mL (≈ 19.3 µM)
MIC ([26]; Escherichia coli, VGH8419, 18 h, read-out: MIC): 1 µg/mL (≈ 2.41 µM)
MIC ([27]; Escherichia coli, CMC8411, 18 h, read-out: MIC): 0.5 µg/mL (≈ 1.21 µM)
MIC [28]: 16 µg/mL (≈ 38.6 µM)
MIC ([29]; Klebsiella pneumoniae, MOR8424, 18 h, read-out: MIC): 4 µg/mL (≈ 9.65 µM)
MIC [30]: 2 µg/mL (≈ 4.83 µM)
MIC ([31]; Enterococcus faecalis, UCI8519, 18 h, read-out: MIC): 4 µg/mL (≈ 9.65 µM)
MIC [32]: > 16 µg/mL
MIC ([33]; Staphylococcus aureus, VGH8445, 18 h, read-out: MIC): 0.12 µg/mL (≈ 0.29 µM)
MIC ([34]; Escherichia coli, CMC8450, 18 h, read-out: MIC): 2 µg/mL (≈ 4.83 µM)
MIC ([35]; Escherichia coli, MOR8420, 18 h, read-out: MIC): 1 µg/mL (≈ 2.41 µM)
MIC ([36]; Staphylococcus aureus, VGH8447, 18 h, read-out: MIC): 0.25 µg/mL (≈ 0.603 µM)
MIC [37]: > 16 µg/mL
MIC [38]: 0.5 µg/mL (≈ 1.21 µM)

O=C(O)c1cn(C2CC2)c2cc(N3CCNC(c4ccccn4)C3)c(F)cc2c1=O (stereo not drawn) [Example 129, 1-Cyclopropyl-6-fluoro-1,4-dihydro-4-oxo-7-[3-(2-pyridinyl) -1-piperazinyl]-3-quinolinecarboxylic acid, monohydrochloride]
MIC ([2]; 18 hours, monohydrochloride): 0.25 µg/mL
MIC ([3]; 18 hours, monohydrochloride): 4 µg/mL
MIC ([4]; 18 hours, monohydrochloride): 2 µg/mL
MIC ([5]; 18 hours, monohydrochloride): 0.5 µg/mL
MIC ([7]; 18 hours, monohydrochloride): 16 µg/mL
MIC ([8]; 18 hours, monohydrochloride): 16 µg/mL
MIC ([9]; 18 hours, monohydrochloride): 0.5 µg/mL
MIC ([10]; 18 hours, monohydrochloride): 0.03 µg/mL
MIC ([12]; 18 hours, monohydrochloride): 0.12 µg/mL
MIC ([13]; 18 hours, monohydrochloride): 0.25 µg/mL
MIC ([14]; 18 hours, monohydrochloride): 2 µg/mL
MIC ([17]; 18 hours, monohydrochloride): 0.25 µg/mL
MIC ([18]; 18 hours, monohydrochloride): 0.25 µg/mL
MIC ([19]; 18 hours, monohydrochloride): 0.5 µg/mL
MIC ([20]; 18 hours, monohydrochloride): 0.5 µg/mL
MIC ([22]; 18 hours, monohydrochloride): 0.5 µg/mL
MIC ([23]; 18 hours, monohydrochloride): 0.25 µg/mL
MIC ([24]; 18 hours, monohydrochloride): 0.25 µg/mL
MIC ([25]; 18 hours, monohydrochloride): 2 µg/mL
MIC ([26]; 18 hours, monohydrochloride): 0.12 µg/mL
MIC ([27]; 18 hours, monohydrochloride): 0.03 µg/mL
MIC [39]: 0.03 µg/mL and 0.06 µg/mL
MIC ([29]; 18 hours, monohydrochloride): 0.5 µg/mL
MIC ([31]; 18 hours): 2 µg/mL
MIC ([33]; 18 hours, monohydrochloride): 0.03 µg/mL
MIC ([34]; 18 hours, monohydrochloride): 0.25 µg/mL
MIC ([35]; 18 hours, monohydrochloride): 0.12 µg/mL
MIC ([36]; 18 hours, monohydrochloride): 0.12 µg/mL
